From patent US20060275847A1, “Method for assessing biofilms” (priority 2002, published 2006)

Legend:
Type in all cases: cell-based, Escherichia coli
[1] = test system: tac promoter (GFP expression) in E. coli CL182; assay: GFP expression from the IPTG responsive tac promoter in adhered CL182; details: without IPTG versus with IPTG (0.2 μM) in Luria broth
Method: (§1) The strains were mixed and grown in the presence of selective antibiotics (tetracycline, ampicillin or chloramphenicol) and the effects were visualised using the IN Cell Analyzer.
(§2) E. coli cultures were grown in batch culture at 37° C. for 16 hours under selective pressure. Cells were pelleted by centrifugation, washed and resuspended in cold PBS. OD600 mn was normalised (to 1) for both cultures and solutions were diluted ten fold in cold PBS. Cells (100 μl) were allowed to settle and adhere to the surface of a Packard microtitre plate (Packard #6005182) at 4° C. for 1 hour. Adhered E. coli were washed twice with PBS (100 μl). Luria broth (100 μl) with or without IPTG (0.2 μM), and ampicillin (100 μg/ml), tetracycline (10 μg/ml) and chloramphenicol (34 μg/ml) were added to adhered cells and incubated at 37° C. for 4 hours and 16 hours. Cells were washed twice with PBS and incubated for 10 minutes in Hoechst 33342 (0.1 μM in PBS). Cells were washed in PBS and imaged sequentially using the UV (365 nm) and blue (488 nm) laser lines to excite Hoechst 33342 and GFP respectively. […]
(§3) The images were then analysed using the algorithms described in FIGS. 7 to 14. […] In addition, the overlap between green and blue fluorescent biofilm was calculated in 3D.

XL1-blue and CL182 cells = assay: Differential 3D analysis of mixed adhered E. coli cultures grown with selective antibiotics; details: for inhibition of biofilm development: summary statement referring to FIGS. 17 and 18
Method: as §1
E. coli cultures were grown in batch culture at 37° C. for 16 hours under selective pressure. Cells were pelleted by centrifugation, washed and resuspended in cold PBS. OD600 mn was normalised (to 1) for both cultures and solutions were diluted ten fold in cold PBS. Cells (100 μl) were allowed to settle and adhere to the surface of a Packard microtitre plate (Packard #6005182) at 4° C. for 1 hour. Adhered E. coli were washed twice with PBS (100 μl). Luria broth (100 μl) with or without IPTG (0.2 μM), and ampicillin (100 μg/ml), tetracycline (10 μg/ml) and chloramphenicol (34 μg/ml) were added to adhered cells and incubated at 37° C. for 4 hours and 16 hours. Cells were washed twice with PBS and incubated for 10 minutes in Hoechst 33342 (0.1 μM in PBS). Cells were washed in PBS and imaged sequentially using the UV (365 nm) and blue (488 nm) laser lines to excite Hoechst 33342 and GFP respectively. Emission light was captured using the 450BP65 and 565BP50 filters and collected as 12 bit images; 24 slices were acquired per condition with 1 μm spacing between them.
The images were then analysed using the algorithms described in FIGS. 7 to 14. The voxel dimensions were established prior to conducting the experiment using sub-resolution and super-resolution beads. The analysis thus provides data on the amount of biofilm in both colour planes in three dimensions as described previously. In addition, the overlap between green and blue fluorescent biofilm was calculated in 3D.

E. coli XL1-blue = assay: Differential 3D analysis of adhered E. coli cultures (confocal imaging, adhered culture volume); details: Luria broth, chloramphenicol 34 μg/ml, 37° C., 4 hours and 16 hours
Method: as §1, §2, §3

E. coli CL182 = assay: as above; details: Luria broth, chloramphenicol 34 μg/ml, 37° C., 4 hours and 16 hours
Method: as §1, §2, §3

SMILES	reduction in the expression of GFP from the tac promoter by CL182 in the absence of IPTG [1]	differential inhibition of growth of XL1-blue and CL182 cells (XL1-blue and CL182 cells; ampicillin 100 μg/ml, tetracycline 10 μg/ml, 37° C., 4 hours and 16 hours, XL1-blue tetracycline resistant, CL182 ampicillin resistant)	inhibition of biofilm development (XL1-blue and CL182 cells)	inhibition of growth of XL1-blue (E. coli XL1-blue)	inhibition of growth of CL182 (E. coli CL182)
CC(C)S[C@@H]1O[C@H](CO)[C@H](O)[C@H](O)[C@H]1O [IPTG]	~25%				
CC1(C)S[C@@H]2[C@H](NC(=O)[C@H](N)c3ccccc3)C(=O)N2[C@H]1C(=O)O [ampicillin]		Differential inhibition	differentially inhibit		
O=C(N[C@H](CO)[C@H](O)c1ccc([N+](=O)[O-])cc1)C(Cl)Cl [chloramphenicol]			differentially inhibit	strongly inhibited	strongly inhibited
